Results from patent US20090098529A1 (priority 2006, published 2009).

System: GI-101A tumors
Design: species or system nude mice
Details: mouse, in vivo

| SMILES | Effect on tumor growth |
| --- | --- |
| N.N.[Cl][Pt][Cl] [Cisplatin, cis-diamminedichloroplatinum] | decreased the rate of tumor growth, but did not shrink tumors |
| COc1cccc2c1C(=O)c1c(O)c3c(c(O)c1C2=O)C[C@@](O)(C(=O)CO)C[C@@H]3O[C@H]1C[C@H](N)[C@H](O)[C@H](C)O1 [Doxorubicin, doxorubicin] | did not have any effect on the rate of tumor growth |
